Drawing on patent US5039805A, “Novel benzoic and phenylacetic acid derivatives” (Hoffmann-La Roche Inc., priority 1988, dated 1991), this text covers IC50 and LD50 for 28 compounds.

As usually defined, the IC50 is the concentration that gives 50% inhibition. One may read the LD50 as the dose expected to kill half of the subjects tested. Read a low LD50 as a more toxic substance.

Where a SMILES comes first, the peptide text is derived from it. [ ]: non-standard residue; d: D form. The star is where a group is joined. 3Abz = Nc1cccc(C(=O)O)c1; Boc = CC(C)(C)OC(=O)*

T1 sequence (P08514 32-887 limits assumed): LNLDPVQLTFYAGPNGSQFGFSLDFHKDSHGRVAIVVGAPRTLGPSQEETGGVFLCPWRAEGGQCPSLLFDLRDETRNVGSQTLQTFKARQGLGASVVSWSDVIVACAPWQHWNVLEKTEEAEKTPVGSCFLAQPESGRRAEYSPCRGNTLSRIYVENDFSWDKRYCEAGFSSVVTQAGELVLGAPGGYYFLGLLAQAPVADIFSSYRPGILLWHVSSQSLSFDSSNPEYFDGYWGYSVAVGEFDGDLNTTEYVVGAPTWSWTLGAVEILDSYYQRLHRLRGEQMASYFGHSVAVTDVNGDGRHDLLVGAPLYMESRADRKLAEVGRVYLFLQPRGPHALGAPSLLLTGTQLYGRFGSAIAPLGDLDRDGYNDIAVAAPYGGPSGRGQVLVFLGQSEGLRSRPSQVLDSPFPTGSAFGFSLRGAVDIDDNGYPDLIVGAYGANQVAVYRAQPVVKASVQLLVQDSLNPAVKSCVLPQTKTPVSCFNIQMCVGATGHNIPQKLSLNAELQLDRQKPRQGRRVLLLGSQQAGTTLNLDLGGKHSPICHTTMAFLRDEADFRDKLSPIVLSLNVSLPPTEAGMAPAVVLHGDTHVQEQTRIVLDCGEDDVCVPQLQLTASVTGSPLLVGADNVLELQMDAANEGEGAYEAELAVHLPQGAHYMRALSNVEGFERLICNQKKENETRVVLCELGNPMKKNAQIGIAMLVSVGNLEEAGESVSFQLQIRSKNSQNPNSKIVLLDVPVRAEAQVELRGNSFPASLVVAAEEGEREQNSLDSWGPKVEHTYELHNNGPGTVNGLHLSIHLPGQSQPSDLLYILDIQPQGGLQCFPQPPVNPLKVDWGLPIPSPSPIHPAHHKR
T1 sequence (P08514 891-1039 limits assumed): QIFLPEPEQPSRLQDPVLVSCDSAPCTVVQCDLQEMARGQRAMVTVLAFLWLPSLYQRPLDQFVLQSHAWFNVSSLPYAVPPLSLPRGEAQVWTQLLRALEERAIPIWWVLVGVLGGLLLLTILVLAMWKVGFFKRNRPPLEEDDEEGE
T1 sequence (P05106 27-788): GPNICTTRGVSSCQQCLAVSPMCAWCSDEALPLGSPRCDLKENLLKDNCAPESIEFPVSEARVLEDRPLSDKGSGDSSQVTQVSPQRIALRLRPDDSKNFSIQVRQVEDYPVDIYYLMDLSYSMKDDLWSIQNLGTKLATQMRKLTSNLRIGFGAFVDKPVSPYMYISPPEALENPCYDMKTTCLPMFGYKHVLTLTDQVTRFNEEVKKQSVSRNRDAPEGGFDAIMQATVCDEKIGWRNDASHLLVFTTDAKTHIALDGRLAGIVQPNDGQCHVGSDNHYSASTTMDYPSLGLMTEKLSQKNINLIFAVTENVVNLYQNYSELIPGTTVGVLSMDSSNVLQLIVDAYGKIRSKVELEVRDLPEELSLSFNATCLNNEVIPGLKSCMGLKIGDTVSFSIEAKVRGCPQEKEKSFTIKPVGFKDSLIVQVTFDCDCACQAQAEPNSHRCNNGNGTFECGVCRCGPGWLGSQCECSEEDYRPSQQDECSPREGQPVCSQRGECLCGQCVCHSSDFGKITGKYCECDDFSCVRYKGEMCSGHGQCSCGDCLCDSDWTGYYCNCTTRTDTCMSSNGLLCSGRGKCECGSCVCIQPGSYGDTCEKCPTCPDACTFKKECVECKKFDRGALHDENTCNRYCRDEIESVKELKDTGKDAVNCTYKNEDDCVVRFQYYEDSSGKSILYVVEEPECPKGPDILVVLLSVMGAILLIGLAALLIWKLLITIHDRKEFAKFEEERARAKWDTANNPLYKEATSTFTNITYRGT

The first series addresses T1, fibrinogen receptor, glycoprotein IIb/IIIa (Homo sapiens, UniProt P05106+P08514).
T1 construct: obtained from Triton X-100 extracts of human blood platelets; from tissue
Description: inhibition of the binding of fibrinogen to the immobilized fibrinogen receptor (ELISA). The conditions noted are these: fibrinogen binding to immobilized glycoprotein IIb/IIIa from human blood platelets, read-out: IC50 (inhibition of the binding of fibrinogen to the immobilized receptor by 50%). As to the method: The glycoprotein IIb/IIIa is obtained from Triton X-100 extracts of human blood platelets and is purified by lectin affinity chromatography (Analytical Biochemistry 151, 1985, 169-177) and chromatography on an Arg-Gly-Asp-Ser affinity column (Science 231, 1986, 1559-62). The thus-obtained receptor protein is bonded to microtitre plates. The specific binding of fibrinogen to the immobilized receptor is determined with the aid of an ELISA system ("enzyme-linked immunosorbent assay"). The IC50 values hereinafter correspond to that concentration of the test substance which is required to inhibit the binding of fibrinogen to the immobilized receptor by 50%: […]
(ELISA stands for enzyme-linked immunosorbent assay.)
As to `NCCCCC(=O)Nc1cccc(C(=O)NC(CC(=O)O)c2ccc3c(c2)CCC3)c1` (racemic) [Example 41, DL-N-[m-(5-aminovaleramido)benzoyl]-3-(5-indanyl)-β-alanine], the IC50 came out at 280 nM.

Regarding `NCCCCCC(=O)Nc1cccc(C(=O)NCCC(=O)O)c1` [Example 5, N-[m-(6-aminohexanamido)benzoyl]-β-alanine], the IC50 was determined as 270 nM. Take `NCc1ccc(C(=O)Nc2cccc(C(=O)NCCC(=O)O)c2)cc1` [Example 8, N-[m-(α-amino-p-toluamido)benzoyl]-β-alanine]: the IC50 was found to be 160 nM.

As for `NCCCCC(=O)Nc1cccc(C(=O)NCCC(=O)O)c1` [Example 9, N-[m-(5-aminovaleramido)benzoyl]-β-alanine], the IC50 worked out at 240 nM.

Regarding `N=C(N)NCCCCCC(=O)Nc1cccc(C(=O)NCCC(=O)O)c1` [Example 10, N-[m-(6-guanidinohexanamido)benzoyl]-β-alanine], the IC50 stood at 260 nM. Regarding `N=C(N)NCc1ccc(C(=O)Nc2cccc(C(=O)NCCC(=O)O)c2)cc1` [Example 13, N-[m-(α-guanidino-p-toluamido)benzoyl]-β-alanine], the IC50 is 220 nM. On the same count and under the same terms, with `CC(C)[C@H](NC(=O)[C@H](CC(=O)O)NC(=O)c1cccc(NC(=O)[C@@H](N)CCCNC(=N)N)c1)C(=O)O` [Example 14, N-[N-[m-(L-arginylamino)benzoyl]-L-α-aspartyl]-L-valine] (H-R[3Abz]DV-OH) the figure was 300 nM.

On to `CC(C)[C@H](NC(=O)[C@H](CC(=O)O)NC(=O)c1cccc(NC(=O)[C@H](CCCN=C(N)N)NC(=O)OC(C)(C)C)c1)C(=O)O` [Example 15, [m-(Boc-Arg-NH)benzoyl]-Asp-Val] (Boc-R[3Abz]DV-OH), for which the IC50 was determined as 80 nM.

`NCCCCCC(=O)Nc1ccc(Cl)c(C(=O)NCCC(=O)O)c1` [Example 17, N-[5-(6-aminohexanamido)-2-chlorobenzoyl]-β-alanine]: the IC50 turned out to be 380 nM. In the case of `NCCCCCCC(=O)Nc1cccc(C(=O)NCCC(=O)O)c1` [Example 21, N-[m-(7-aminoheptanamido)benzoyl]-β-alanine], the IC50 amounted to 460 nM.

In the case of `N=C(N)NCCCCC(=O)Nc1cccc(C(=O)NCCC(=O)O)c1` [Example 22, N-[m-(5-guanidinovaleramido)benzoyl]-β-alanine], the IC50 was found to be 250 nM. In the case of `N=C(N)NCCCC(=O)Nc1cccc(C(=O)NCCC(=O)O)c1` [Example 24, N-[m-(4-guanidinobutyramido)benzoyl]-β-alanine], the concentration for half-maximal inhibition (IC50) came to 380 nM. Same read-out and setting: with `CC(C)(C)OC(=O)N[C@@H](CCCN)C(=O)Nc1cccc(C(=O)NCCC(=O)O)c1` [Example 28, N-[m-[[(S)-N2-(t-butoxycarbonyl)-L-ornithyl]amino]benzoyl]-β-alanine] the figure was 140 nM. Regarding `NCc1ccc(CC(=O)Nc2cccc(C(=O)NCCC(=O)O)c2)cc1` [Example 32, N-[m-[2-(α-amino-p-tolyl)acetamido]benzoyl]-β-alanine], the IC50 came to 120 nM.

`N=C(N)c1ccc(C(=O)Nc2cccc(C(=O)N[C@@H](CC(=O)O)C(=O)N[C@@H](Cc3cccc4ccccc34)C(=O)O)c2)cc1` [Example 34, N-[N-[m-(p-amidinobenzamido)benzoyl]-L-α-aspartyl]-3-(1-naphthyl)-L-alanine]: the IC50 came to 46 nM. Turning to `N=C(N)c1ccc(C(=O)Nc2cccc(C(=O)NCCC(=O)O)c2)cc1` [Example 35, N-[m-(p-amidinobenzamido)-benzoyl]-β-alanine], the IC50 worked out at 0.1 nM. As to `N=C(N)NCC(=O)Nc1cccc(C(=O)NCCC(=O)O)c1` [Example 36, N-[m-[(N-amidinoglycyl)amino]benzoyl]-β-alanine], the IC50 was determined as 270 nM. On the same count and under the same terms, with `NCCCCC(=O)Nc1ccc(OCc2ccccc2)c(C(=O)NCCC(=O)O)c1` [Example 46, N-[5-(5-aminovaleramido)-2-(benzyloxy)benzoyl]-β-alanine] the figure was 150 nM; with `N=C(N)NCCCCC(=O)Nc1ccc(OCc2ccccc2)c(C(=O)NCCC(=O)O)c1` [Example 47, N-[2-(benzyloxy)-5-(5-guanidinovaleramido)benzoyl]-β-alanine], 180 nM; with `N=C(N)c1ccc(C(=O)Nc2ccc(C(=O)NCCC(=O)O)cc2)cc1` [Example 51, N-[p-(p-amidinobenzamido)benzoyl]-β-alanine], 17 nM. On the same count and under the same terms, then `N=C(N)c1ccc(CC(=O)Nc2cccc(C(=O)NCCC(=O)O)c2)cc1` [Example 52, N-[m-[2-(p-amidinophenyl)acetamido]benzoyl]-β-alanine], with 140 nM; and `O=C(O)CCNC(=O)c1cccc(NC(=O)CCC2CCNCC2)c1` [Example 53, N-[m-[3-(4-piperidinyl)propionamido]benzoyl]-β-alanine], with 70 nM; and `N=C(N)c1ccc(C(=O)Nc2ccc(OCc3ccccc3)c(C(=O)NCCC(=O)O)c2)cc1` [Example 54, N-[5-(p-amidinobenzamido)-2-(benzyloxy)benzoyl]-β-alanine], with 10 nM. On the same count and under the same terms, with `N=C(N)c1ccc(C(=O)Nc2cc(C(=O)NCCC(=O)O)ccc2OCc2ccccc2)cc1` [Example 55, N-[3-(p-amidinobenzamido)-4-(benzyloxy)benzoyl]-β-alanine] the figure was 25 nM; with `N=C(N)c1ccc(C(=O)Nc2cc(C(=O)NCCC(=O)O)ccc2O)cc1` [Example 56, N-[3-(p-amidinobenzamido)-4-hydroxybenzoyl]-β-alanine], 5 nM; with `COC(=O)[C@H](CC(=O)O)NC(=O)c1cccc(NC(=O)c2ccc(C(=N)N)cc2)c1` [Example 60, (S)-3-[m-(p-amidinobenzamido)benzamido]-3-(methoxycarbonyl)propionic acid], 50 nM. Take `N=C(N)N1CCC(C(=O)Nc2cccc(C(=O)N[C@@H](CC(=O)O)C(=O)N[C@@H](Cc3ccccc3)C(=O)O)c2)CC1` [Example 64, N-[N-[m-(1-amidino-4-piperidinecarboxamido)benzoyl]-L-α-aspartyl]-3-phenyl-L-alanine]: the IC50 is 220 nM. As for `N=C(N)c1ccc(CC(=O)Nc2cccc(C(=O)N[C@@H](CC(=O)O)C(=O)N[C@@H](Cc3ccccc3)C(=O)O)c2)cc1` [Example 65, N-[N-[m-[2-(p-amidinophenyl)acetamido]benzoyl]-L-α-aspartyl]-3-phenyl-L-alanine], the IC50 is 84 nM.

Test system in a further series: not listed separately
Briefly: LD50 in the mouse (acute toxicity). The conditions noted are these: in vivo, ip, intraperitoneally. The procedure: The compounds of formula I are non-toxic. Thus, the product of Example 10 has a LD50 of more than 1000 mg/kg intraperitoneally and more than 2000 mg/kg perorally in the mouse.
`N=C(N)NCCCCCC(=O)Nc1cccc(C(=O)NCCC(=O)O)c1` [Example 10, N-[m-(6-guanidinohexanamido)benzoyl]-β-alanine] gave an LD50 of more than 1000 mg/kg.

Still in this series, the particulars now being: in vivo, po, perorally.
The compound `N=C(N)NCCCCCC(=O)Nc1cccc(C(=O)NCCC(=O)O)c1` [Example 10, N-[m-(6-guanidinohexanamido)benzoyl]-β-alanine] had an LD50 of more than 2000 mg/kg.
